Reference: ChEMBL document CHEMBL4840381, “BRD9 Bifunctional Degraders for Treating Cancer” (ACS Med Chem Lett, 2021)

What follows are compounds tested against Protein cereblon/Bromodomain-containing protein 9 (Homo sapiens, UniProt Q9H8M2+Q96SW2) (assay: Induction of CRBN-mediated GFP-fused BRD9 (unknown origin) degradation expressed in HEK293-A cells incubated for 24 hrs by flow cytometric analysis).
Format: cell-based

Protein cereblon/Bromodomain-containing protein 9, sequence (Q9H8M2 whole entry, the tested form may be a part): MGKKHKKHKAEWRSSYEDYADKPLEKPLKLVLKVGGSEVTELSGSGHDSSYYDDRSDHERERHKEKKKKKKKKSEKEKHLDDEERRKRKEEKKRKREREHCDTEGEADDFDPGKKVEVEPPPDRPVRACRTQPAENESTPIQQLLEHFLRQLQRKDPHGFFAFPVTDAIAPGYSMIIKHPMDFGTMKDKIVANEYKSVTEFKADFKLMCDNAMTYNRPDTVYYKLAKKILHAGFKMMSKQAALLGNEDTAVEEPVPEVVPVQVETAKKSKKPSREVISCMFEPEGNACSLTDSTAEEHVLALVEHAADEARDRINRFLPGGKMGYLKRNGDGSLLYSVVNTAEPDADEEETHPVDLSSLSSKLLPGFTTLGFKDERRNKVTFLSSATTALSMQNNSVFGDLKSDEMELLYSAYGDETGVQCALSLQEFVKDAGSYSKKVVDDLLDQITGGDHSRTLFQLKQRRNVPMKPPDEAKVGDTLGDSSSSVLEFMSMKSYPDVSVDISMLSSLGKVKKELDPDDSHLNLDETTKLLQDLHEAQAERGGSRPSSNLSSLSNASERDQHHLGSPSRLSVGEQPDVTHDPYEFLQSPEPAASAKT
Protein cereblon/Bromodomain-containing protein 9, sequence (Q96SW2 whole entry, the tested form may be a part): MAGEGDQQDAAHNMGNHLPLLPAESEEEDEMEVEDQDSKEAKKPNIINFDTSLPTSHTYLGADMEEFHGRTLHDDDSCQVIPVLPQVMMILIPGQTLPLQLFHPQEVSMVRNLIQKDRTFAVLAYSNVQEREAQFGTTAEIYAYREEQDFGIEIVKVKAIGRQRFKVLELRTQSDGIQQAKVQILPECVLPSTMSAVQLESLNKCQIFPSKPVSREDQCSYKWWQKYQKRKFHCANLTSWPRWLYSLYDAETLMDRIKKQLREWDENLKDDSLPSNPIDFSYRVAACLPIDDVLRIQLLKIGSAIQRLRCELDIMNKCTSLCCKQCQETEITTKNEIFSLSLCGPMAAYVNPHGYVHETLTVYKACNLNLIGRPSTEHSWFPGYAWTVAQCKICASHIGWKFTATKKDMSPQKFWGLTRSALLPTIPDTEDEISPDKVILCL

Structure (SMILES)	DC50 [nM]
CCCCn1cc(-c2ccc(O[C@H]3CCN(CC4CCN(C(=O)c5ccc(OC)c(N6CCC(=O)NC6=O)c5)CC4)C[C@@H]3F)c(OC)c2)c2ccncc2c1=O	1
CCCCn1cc(-c2cc(OC)c(OC3CCN(CC4CCN(C(=O)c5ccc(Cl)c(N6CCC(=O)NC6=O)c5)CC4)CC3)c(OC)c2)c2ccncc2c1=O	1
CCCCn1cc(-c2ccc(OC3CCN(CC4CCN(C(=O)c5ccc(Cl)c(N6CCC(=O)NC6=O)c5)CC4)CC3)c(OC)c2)c2ccncc2c1=O	1

The remaining compounds from weak to strong by DC50, led by results:

DC50 [nM]	Structure (SMILES)
1	CCCCn1cc(-c2cc(F)c(O[C@H]3CCN(CC4CCN(C(=O)c5ccc(OC)c(N6CCC(=O)NC6=O)c5)CC4)C[C@@H]3F)c(F)c2)c2ccncc2c1=O
1	COc1cc(-c2cn(C)c(=O)c3cnccc23)cc(OC)c1CCN1CCC(OC2CCN(C(=O)c3ccc(Cl)c(N4CCC(=O)NC4=O)c3)CC2)CC1
1	COc1cc(-c2cn(C)c(=O)c(C)c2C)cc(OC)c1CCN1CCC(OC2CCN(C(=O)c3ccc(Cl)c(N4CCC(=O)NC4=O)c3)CC2)CC1
